Experiments:
Type in all cases: in vivo, pig
[1] = system: Neonatal Yorkshire/Landrace cross bred piglets; assay: Intestinal histomorphology: villus height and crypt depth; parameters: key to Villus (total) / Crypt (total): + denotes a positive effect (compared to standard PN); ++ a very positive effect; − denotes no difference; key to Total villus height / Total crypt depth: +++ indicate P < 0.01; ++ indicates P < 0.05; + indicates positive trends; = denotes no significant P value; − denotes negative trends; settings: for % Δ from PN, Total C (crypt depth) / % Δ from PN, Total V (villus height): sum over sections; for Crypt (total) / Villus (total): all sections, compared to standard PN; for Total crypt depth / Total villus height: compared to standard PN (s-PN)
Experimental: (§1) Neonatal Yorkshire/Landrace cross bred piglets (n=72; six at a time from the same litter, repeating 12 times) were obtained from Oak Hill Genetics (Ewing, Ill.) after 48-hour sow reared for colostrum consumption and iron supplementation.
Formalin-fixed intestinal samples were embedded in paraffin, sliced to approximately 5-μm thickness with a microtome and stained with hematoxylin and eosin (FIG. 6). Villus height, midvillus width, and crypt depth were measured by using a Nikon Optiphot-2 microscope (Nikon, Melville, N.Y.) and ImagePro Express software (Version 4.5; Media Cybernetics, Inc, Silver Spring, Md.) in 8 to 10 well-oriented villi and crypts. Villus surface area (villus height×midvillus width) was also calculated. In addition, intestinal segment circumference was measured to estimate intestinal surface area. The results are provided in FIGS. 7 through 12 (see there for details). […] The Table summarizes the average difference (in % of each Intervention Group (A, B, C, D) versus the PN Group) of the villus height and the crypt depth in the different sections of the gut, i.e. duodenum, jejunum, ileum and colon. The Intervention Groups show an improved villus height compared to the s-PN Group.

[2] = system: Il-10; assay: Serum cytokine quantification, Il-10
Text: as §1
The influence of the respective supplements on inflammation was investigated by determining Il-6, Il-1beta, TNF-alpha and Il-10 serum levels in the intervention groups compared to EN and PN according to Milo et al., Effects of Short-Chain Fatty Acid-Supplemented Total Parenteral Nutrition on Intestinal Pro-Inflammatory Cytokine Abundance. Digestive Diseases and Sciences 2002; 47:2049-2055. Jejunal and ileal samples were homogenized in double-distilled water, and the Bradford protein assay (Biorad, Hercules, Calif., USA) was performed on homogenate and plasma samples. Protein (30 μg) from each sample was denatured by boiling, and proteins were separated by size using 12.5% sodium dodecyl sulfate polyacrylamide gel electrophoresis. Separated proteins were transferred to polyvinylidene difluoride membranes (Biorad) using a semidry transfer apparatus (Biorad). Western blot analysis for TNF-alpha, IL-1beta, Il-10 and IL-6 was performed using porcine-specific polyclonal antibodies (Endogen, Woburn, Mass., USA). A mouse anti-pig monoclonal TNF-alpha antibody was used to detect TNF-alpha ([…]). Rabbit anti-pig polyclonal antibodies specific for IL-1beta and IL-6 were used to detect IL-1beta (17,500 kDa), Il-10 (18,600 kDa) and IL-6 (26,000 kDa). Membranes were developed using the Opti-4CN kit (Biorad) and photographed using the FOTO/Analyst Image Analysis System (Fotodyne, Inc., Hartland, Wis., USA). Densitometry of TNF-alpha, IL-1beta, IL-6, and Il-10 was performed using Collage Image Analysis Software 4.0 (Fotodyne, Inc.). Results are shown in FIG. 15 (Il-6), FIG. 16 (Illbeta), FIG. 17 (TNF-alpha) and FIG. 18 (Il-10).

[3] = system: Neonatal Yorkshire/Landrace cross bred piglets; assay: Cognitive assessment by eyeblink conditioning; parameters: key: + denotes a positive effect (compared to standard PN); ++ a very positive effect; − denotes no difference; settings: compared to standard PN
Text: Eyeblink conditioning is an established Pavlovian method to assess the cerebellum and associated brainstem circuitry with hippocampus involvement that are essential for learning and memory. The eyeblink conditioning procedure took place in a sound-attenuating chamber. A fan was inside the chamber and ran throughout the experiment for ambient noise (70 dB). A speaker mounted to the wall of the chamber delivered the tone conditioned stimulus (CS). A small plastic air puff delivery nozzle (San Diego Instruments, San Diego, Calif.) was secured at approximately 2 cm from the piglet's left eye to deliver the unconditioned stimulus (US). After adaptation to the conditioning apparatus on study day 3, a total of five CS-US conditioning sessions occurred on study days 4-8 following. Each conditioning session consisted of 90 CS-US paired trials and 10 CS alone trials for a total of 100 trials/session. Every tenth trial was a CS alone trial. The CS-US paired trials included: a 500 ms auditory CS (1 kHz, 85 dB tone), a 400 ms interstimulus interval (ISI), followed by a 100 ms corneal airpuff US (10 psi). Both the CS and US were co-terminated at the exact same time. The CS alone trials consisted of a 500 ms auditory CS (1 kHz, 85 dB tone) only. There were random inter-trial intervals of 20 seconds throughout each session. Each conditioning session lasted no longer than 35 minutes. The San Diego Instruments eyeblink software was used to record conditioning session moment-to-moment infrared-reflectance data.

[4] = system: Neonatal Yorkshire/Landrace cross bred piglets; assay: Brain structure development by MRI; parameters: key: + denotes a positive effect (compared to standard PN); ++ a very positive effect; − denotes no difference; settings: compared to standard PN
Text: On study day 9, the piglets were submitted to Magnetic Resonance Imaging (MRI) using an Agilent 9.4 Tesla MRI system (Santa Clara, Calif.) to assess brain structural development and body composition. Heart rate and respiration were monitored during the entire MRI scan. For anatomic assessment of the brain targeting the hippocampus, images were obtained using a 3D T1-weighted magnetization prepared gradient-echo sequence: repetition time=1,900 ms; echo time=2.48 ms; inversion time=900 ms, flip angle=9°, matrix=256×256 (interpolated to 512×512), slice thickness=1.0 mm. For body composition assessment, a multi-slice, spin-echo technique was used to image the truncal area (longissimus fat/muscle): echo time=20 ms; recovery time=400 ms with four-signal averaging. […] Total scanning time was approximately 60 minutes to include both brain and body composition scanning. The MRI images were analyzed using OsiriX (Bernex, Switzerland). […] The average body weight and abdominal girth of the piglets in the Study Groups was also monitored.

## CCCCCCCCCCCCCCCC(=O)OCC(COC(=O)CCC)OC(=O)CCCCCCCCCCCCCCC (centres unmarked) [1,2-Dipalmitoyl 3-butyryl glycerol]
[1]; 10 mmol/L TPN
  average duodenal crypt length (crypt depth, FIG. 8): gave the best results
  average duodenal villous length (FIG. 7): increased villous length compared to the other study groups
  average ileal crypt depth (FIG. 11): significant difference
  average jejunal crypt depth (FIG. 10): lower
  average jejunal villous length (FIG. 9): relatively good results
[1]; 10 mmol/L TPN (Groups A, C, D)
  % Δ from PN, Colon C (crypt depth): +12%
  % Δ from PN, Duodenum C (crypt depth): +19%
  % Δ from PN, Duodenum V (villus height): +31%
  % Δ from PN, Ileum C (crypt depth): +15%
  % Δ from PN, Ileum V (villus height): +24%
  % Δ from PN, Jejunum C (crypt depth): +2%
  % Δ from PN, Jejunum V (villus height): +5%
  % Δ from PN, Total Total (crypt + villus): +110%
  % Δ from PN, Total C (crypt depth): +50%
  % Δ from PN, Total V (villus height): +60%
[1]; 10 mmol/L in PN
  Crypt (total): +
  Villus (total): +
[2]; 10 mmol/L TPN (Groups A, C, D)
  serum levels of Il-10 (FIG. 18): almost or about as low
[3]; 10 mmol/L in PN
  Cognitive: −
[4]; 10 mmol/L in PN
  Brain: −

## CCCC(=O)OCC(COC(=O)CCC)OC(=O)CCC [Tributyrin]
[1]; 10 mmol/L TPN
  average duodenal crypt length (crypt depth, FIG. 8): gave the best results
  average duodenal villous length (FIG. 7): only slightly below the mean values determined for Groups B and D
  average ileal crypt depth (FIG. 11): significant difference
  average jejunal crypt depth (FIG. 10): lower
[1]; 10 mmol/L TPN (Groups A, C, D)
  % Δ from PN, Colon C (crypt depth): +9%
  % Δ from PN, Duodenum C (crypt depth): +11%
  % Δ from PN, Duodenum V (villus height): +32%
  % Δ from PN, Ileum C (crypt depth): +17%
  % Δ from PN, Ileum V (villus height): +14%
  % Δ from PN, Jejunum C (crypt depth): −8%
  % Δ from PN, Jejunum V (villus height): +14%
  % Δ from PN, Total Total (crypt + villus): +89%
  % Δ from PN, Total C (crypt depth): +29%
  % Δ from PN, Total V (villus height): +60%
[1]; 10 mmol/L in PN
  Crypt (total): +
  Villus (total): +
[1]; 10 mmol/L
  Total crypt depth: +
  Total villus height: +
[1]; 30 mmol/L TPN
  average duodenal crypt length (crypt depth, FIG. 8): better crypt depth than S-PN, but is not as good as Groups A, C and D
  average duodenal villous length (FIG. 7): increased villous length compared to the other study groups
[1]; 30 mmol/L TPN (Group B)
  % Δ from PN, Colon C (crypt depth): +10%
  % Δ from PN, Duodenum C (crypt depth): +12%
  % Δ from PN, Duodenum V (villus height): +12%
  % Δ from PN, Ileum C (crypt depth): +27%
  % Δ from PN, Ileum V (villus height): +31%
  % Δ from PN, Jejunum C (crypt depth): −14%
  % Δ from PN, Jejunum V (villus height): +5%
  % Δ from PN, Total Total (crypt + villus): +111%
  average jejunal crypt depth (FIG. 10): lower
  % Δ from PN, Total C (crypt depth): +63%
  % Δ from PN, Total V (villus height): +48%
[1]; 30 mmol/L in PN
  Crypt (total): ++
  Villus (total): ++
[1]; 30 mmol/L
  Total crypt depth: +
  Total villus height: +
[1]; Group B, printed in b62 as 10 mmol/L TPN
  average jejunal villous length (FIG. 9): relatively low
[2]; 10 mmol/L TPN (Groups A, C, D)
  serum levels of Il-10 (FIG. 18): lower than in the standard PN Group P
[2]; 30 mmol/L TPN (Group B)
  serum levels of Il-10 (FIG. 18): lower than in the standard PN Group P
[3]; 10 mmol/L in PN
  Cognitive: −
[3]; 30 mmol/L in PN
  Cognitive: −
[4]; 10 mmol/L in PN
  Brain: −
[4]; 30 mmol/L in PN
  Brain: −

## L-arginine, butanoate (3:4) [Arginine butyrate]
[1]; 10 mmol/L TPN
  average duodenal crypt length (crypt depth, FIG. 8): slightly better even than Groups A and D
  average duodenal villous length (FIG. 7): only slightly below the mean values determined for Groups B and D
  average ileal crypt depth (FIG. 11): close behind
  average jejunal crypt depth (FIG. 10): gave the best results
  average jejunal villous length (FIG. 9): gave the best results
[1]; 10 mmol/L TPN (Group C), versus other groups
  improvement of the gut architecture in total: most prominent improvement of the gut architecture
[1]; 10 mmol/L TPN (Groups A, C, D)
  % Δ from PN, Colon C (crypt depth): +22%
  % Δ from PN, Duodenum C (crypt depth): +15%
  % Δ from PN, Duodenum V (villus height): +35%
  % Δ from PN, Ileum C (crypt depth): +7%
  % Δ from PN, Ileum V (villus height): +16%
  % Δ from PN, Jejunum C (crypt depth): +3%
  % Δ from PN, Jejunum V (villus height): +26%
  % Δ from PN, Total Total (crypt + villus): +124%
  % Δ from PN, Total C (crypt depth): +47%
  % Δ from PN, Total V (villus height): +77%
[1]; 10 mmol/L in PN
  Crypt (total): +
  Villus (total): +
[1]; 10 mmol/L
  Total crypt depth: +
  Total villus height: +
[1]; versus the Group which obtained standard PN
  gut architecture, systemic and local inflammation and systemic and local immunity (overall): especially beneficial
[2]; 10 mmol/L TPN (Groups A, C, D)
  serum levels of Il-10 (FIG. 18): lower than in the standard PN Group P
[3]; 10 mmol/L in PN
  Cognitive: −
[4]; 10 mmol/L in PN
  Brain: −

— patent publication US20220160669A1, “PARENTERAL NUTRITION FORMULATION” (BAXTER INTERNATIONAL INC., priority 2020, published 2022)
